In PubChem BioAssay AID2060599 (Molecular Pharmacology Branch, DTP, NCI, 2025):

System: 817829-284-R-J1-PDC complex spheroids, viability
Assay: Anticancer human tumor 817829-284-R-J1-PDC patient-derived colon adenocarcinoma cell line growth inhibition [CLK]
Conditions: for viability, T/C: stronger effect = lower value
Excerpt: A high-throughput screen of multi-cell type tumor spheroids was designed to identify active combinations of […] and targeted small molecules. Complex spheroids include a stromal component modeled by human endothelial cells (HUVEC) and fibroblasts modeled by human mesenchymal stem cells (MSCs). The concentration ranges selected for each drug and investigational agent were based upon clinically achievable concentrations if the clinical Cmax of the agent was known.
Compounds. The drugs and investigational agents: cirtuvivint (SM08502; NSC835563), CC-671 (NSC850746), vemurafenib (NSC761431), tapotoclax (NSC804041), sotorasib (NSC818433), adagrasib (NSC831453), MRTX-1133 (NSC836407), BAY2416964 (NSC825713), copanlisib (NSC816437), inavolisib (NSC800729), abemaciclib (NSC768073), osimertinib (NSC779217), entinostat (NSC756642), eltanexor (KPT-8602, NSC794443), venetoclax (NSC766270), ceralasertib (NSC777638), bortezomib (NSC756655), olaparib (NSC753686), talazoparib (NSC767125), alisertib (NSC759677), peposertib (NSC802822), gemcitabine (NSC613327), 5-fluorouracil (NSC19893), SN-38 (NSC673596), oxaliplatin (NSC266046), paclitaxel (NSC125973), and doxorubicin (NSC123127), were obtained from the National Cancer Institute (NCI) Developmental Therapeutics Program Chemical Repository. The FDA-approved anticancer drug set is available from the Developmental Therapeutics Program at https://dtp.cancer.gov/organization/dscb/obtaining/available plates.htm. […] The stock solutions were prepared in dimethyl sulfoxide (DMSO, Sigma-Aldrich, St. Louis, MO, cat. D2650), except for the platinum complexes which were prepared in saline (Quality Biological, Gaithersburg, MD, cat. 114-055-101), at 800-fold the tested concentration and stored at -70 degrees C prior to their use. All drugs and investigational agents were tested over a range starting from a high concentration at or near the clinical Cmax and decreasing in half-log increments. If the clinical Cmax for an agent had not been determined, the highest concentration tested was 10 microM.
Cell Culture. All cells were maintained in an incubator at 37 degrees C and 5% CO2 with 95% humidity. The PDC lines were cultured according to standard operating procedures established by the NCI PDMR. Briefly, all PDCs were thawed and cultured in Matrigel-coated flasks prepared with a working solution of 1X Ham's F-12 nutrient mix, without supplementation (Invitrogen, Waltham, MA, cat. 11765054), 100 U/mL penicillin-streptomycin (Invitrogen, cat. 15140122), and 2.5% Matrigel (Corning Inc., Corning, NY, cat. 354248) for the first three passages. The 947758-054-R-J2-PDC line was cultured in 6B/Colon 1A media, which includes advanced DMEM/F-12 (Thermo Fisher Scientific, cat. 12634028), 10 mM HEPES (Thermo Fisher Scientific, cat. 15630080), 1X GlutaMAX supplement (Thermo Fisher Scientific, cat. 35050061), 0.1 mg/mL primocin (InvivoGen, cat. ant-pm-2), 10% defined fetal bovine serum, heat inactivated (HyClone Laboratories Inc., cat. SH30070.03HI), 1.25 mM N-Acetyl-L-cysteine (Sigma-Aldrich, cat. A9165), 10 mM nicotinamide (Sigma-Aldrich, cat. N0636), 1X B-27 supplement (Thermo Fisher Scientific, cat. 17504044), 1X N-2 supplement (Thermo Fisher Scientific, cat. 17502048), and 10 microM Y-27632 dihydrochloride (Tocris Bioscience, cat. 1254). The 876862-298-R-J1-PDC was cultured in 6E media, which includes all 6B/Colon 1A media components plus 50% L-WRN conditioned media (ATCC, cat. CRL-3276), 50 ng/mL recombinant human EGF recombinant protein (hEGF; Thermo Fisher Scientific, cat. PHG0311), 10 ng/mL recombinant human fibroblast growth factor 10 (hGFG-10; PeproTech, cat. 100-26), 1 ng/mL recombinant human fibroblast growth factor 2 (hFGF-2; PeproTech, cat. 100-18B), and 1 µM prostaglandin E2 (PGE2; Tocris, cat. 2296). The 227483-062-R1-J1-PDC line was cultured in Panc media, containing all 6E components except hFGF-2, with the addition of 500 nM SB-431542 (Selleckchem, cat. S1067) and 10 nM gastrin (Tocris, cat. 3006). […]

[1] = curve of first compound, second compound 0.0316 µM
[2] = curve of first compound, second compound 0.1 µM
[3] = curve of first compound, second compound 0.316 µM
[4] = curve of first compound, second compound 1 µM
[5] = curve of first compound, second compound 3.16 µM
[6] = curve of first compound, second compound 10 µM
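Further: spheroids exposed to the agents for seven days before readout.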

`CC(C)CC(NC(=O)C(Cc1ccccc1)NC(=O)c1cnccn1)B(O)O` (stereo unspecified) + CN1CCN(c2cc(C(=O)Nc3cc4cc(-c5cnn(C)c5)ccc4cn3)ccn2)CC1 gave an IC50 [1] of 1.09 nM, an IC50 [2] of under 0.949 nM and an IC50 [3] of under 0.949 nM. The IC50 [4] was under 0.949 nM, the IC50 [5] was under 0.949 nM and the IC50 [6] was under 0.949 nM. The viability, T/C (second compound 0.0316 µM, first compound 0.000949 µM) was 56.9%, the viability, T/C (second compound 0.0316 µM, first compound 0.003 µM) was 0.32% and the viability, T/C (second compound 0.0316 µM, first compound 0.00949 µM) was 0.15%. It also gave a viability, T/C (second compound 0.0316 µM, first compound 0.03 µM) of 0.1%, a viability, T/C (second compound 0.0316 µM, first compound 0.0949 µM) of 0.08% and a viability, T/C (second compound 0.0316 µM, first compound 0.3 µM) of 0.06%. It also gave a viability, T/C (second compound 0.1 µM, first compound 0.000949 µM) of 8.37%, a viability, T/C (second compound 0.1 µM, first compound 0.003 µM) of 0.1% and a viability, T/C (second compound 0.1 µM, first compound 0.00949 µM) of 0.11%. The viability, T/C (second compound 0.1 µM, first compound 0.03 µM) was 0.08%, the viability, T/C (second compound 0.1 µM, first compound 0.0949 µM) was 0.06% and the viability, T/C (second compound 0.1 µM, first compound 0.3 µM) was 0.06%. For the same molecule, the viability, T/C (second compound 0.316 µM, first compound 0.000949 µM) was 0.43%, the viability, T/C (second compound 0.316 µM, first compound 0.003 µM) was 0.07% and the viability, T/C (second compound 0.316 µM, first compound 0.00949 µM) was 0.09%. The viability, T/C (second compound 0.316 µM, first compound 0.03 µM) was 0.04%, the viability, T/C (second compound 0.316 µM, first compound 0.0949 µM) was 0.05% and the viability, T/C (second compound 0.316 µM, first compound 0.3 µM) was 0.05%. The viability, T/C (second compound 1 µM, first compound 0.000949 µM) was 0.08%, the viability, T/C (second compound 1 µM, first compound 0.003 µM) was 0.06% and the viability, T/C (second compound 1 µM, first compound 0.00949 µM) was 0.05%. It also gave a viability, T/C (second compound 1 µM, first compound 0.03 µM) of 0.04%, a viability, T/C (second compound 1 µM, first compound 0.0949 µM) of 0.05% and a viability, T/C (second compound 1 µM, first compound 0.3 µM) of 0.05%. For the same molecule, the viability, T/C (second compound 3.16 µM, first compound 0.000949 µM) was 0.07%, the viability, T/C (second compound 3.16 µM, first compound 0.003 µM) was 0.06% and the viability, T/C (second compound 3.16 µM, first compound 0.00949 µM) was 0.06%. The viability, T/C (second compound 3.16 µM, first compound 0.03 µM) was 0.04%, the viability, T/C (second compound 3.16 µM, first compound 0.0949 µM) was 0.07% and the viability, T/C (second compound 3.16 µM, first compound 0.3 µM) was 0.07%. The viability, T/C (second compound 10 µM, first compound 0.000949 µM) was 0.03%, the viability, T/C (second compound 10 µM, first compound 0.003 µM) was 0.06% and the viability, T/C (second compound 10 µM, first compound 0.00949 µM) was 0.09%. The viability, T/C (second compound 10 µM, first compound 0.03 µM) was 0.09%, the viability, T/C (second compound 10 µM, first compound 0.0949 µM) was 0.15% and the viability, T/C (second compound 10 µM, first compound 0.3 µM) was 0.11%.

For `CNC(=O)c1ccc(Nc2nc(OC3CCCC3)c3c(-c4ccc5nc(C)oc5c4)c[nH]c3n2)c(OC)c1`, the viability, T/C (compound 0.0316 µM) was 33.6% [middle of 8 runs], the viability, T/C (compound 0.1 µM) was 28.2% [middle of 8 runs] and the viability, T/C (compound 0.316 µM) was 26.3% [middle of 8 runs]. The viability, T/C (compound 1 µM) was 24.2% [middle of 8 runs], the viability, T/C (compound 3.16 µM) was 20.1% [middle of 8 runs] and the viability, T/C (compound 10 µM) was 23.3% [middle of 8 runs]. For the same molecule, the IC50 (compound alone, run of 08/15/2023) was under 31.6 nM.

`Cn1ncnc1[C@H]1c2n[nH]c(=O)c3cc(F)cc(c23)N[C@@H]1c1ccc(F)cc1` + CN1CCN(c2cc(C(=O)Nc3cc4cc(-c5cnn(C)c5)ccc4cn3)ccn2)CC1 showed an IC50 [1] of 2.58 nM, an IC50 [2] of under 0.316 nM and an IC50 [3] of under 0.316 nM. The IC50 [4] was under 0.316 nM, the IC50 [5] was under 0.316 nM and the IC50 [6] was under 0.316 nM. The viability, T/C (second compound 0.0316 µM, first compound 0.000316 µM) was 60.1%, the viability, T/C (second compound 0.0316 µM, first compound 0.001 µM) was 54.6% and the viability, T/C (second compound 0.0316 µM, first compound 0.00316 µM) was 47.3%. It also gave a viability, T/C (second compound 0.0316 µM, first compound 0.01 µM) of 43.5%, a viability, T/C (second compound 0.0316 µM, first compound 0.0316 µM) of 32.6% and a viability, T/C (second compound 0.0316 µM, first compound 0.1 µM) of 24.1%. The viability, T/C (second compound 0.1 µM, first compound 0.000316 µM) was 13.6%, the viability, T/C (second compound 0.1 µM, first compound 0.001 µM) was 14% and the viability, T/C (second compound 0.1 µM, first compound 0.00316 µM) was 15.3%. For the same molecule, the viability, T/C (second compound 0.1 µM, first compound 0.01 µM) was 14%, the viability, T/C (second compound 0.1 µM, first compound 0.0316 µM) was 15.8% and the viability, T/C (second compound 0.1 µM, first compound 0.1 µM) was 14.7%. It also gave a viability, T/C (second compound 0.316 µM, first compound 0.000316 µM) of 1.91%, a viability, T/C (second compound 0.316 µM, first compound 0.001 µM) of 2.09% and a viability, T/C (second compound 0.316 µM, first compound 0.00316 µM) of 2.16%. For the same molecule, the viability, T/C (second compound 0.316 µM, first compound 0.01 µM) was 1.96%, the viability, T/C (second compound 0.316 µM, first compound 0.0316 µM) was 1.91% and the viability, T/C (second compound 0.316 µM, first compound 0.1 µM) was 1.89%. It also gave a viability, T/C (second compound 1 µM, first compound 0.000316 µM) of 0.11%, a viability, T/C (second compound 1 µM, first compound 0.001 µM) of 0.08% and a viability, T/C (second compound 1 µM, first compound 0.00316 µM) of 0.09%. The viability, T/C (second compound 1 µM, first compound 0.01 µM) was 0.09%, the viability, T/C (second compound 1 µM, first compound 0.0316 µM) was 0.08% and the viability, T/C (second compound 1 µM, first compound 0.1 µM) was 0.09%. For the same molecule, the viability, T/C (second compound 3.16 µM, first compound 0.000316 µM) was 0.1%, the viability, T/C (second compound 3.16 µM, first compound 0.001 µM) was 0.11% and the viability, T/C (second compound 3.16 µM, first compound 0.00316 µM) was 0.14%. It also gave a viability, T/C (second compound 3.16 µM, first compound 0.01 µM) of 0.1%, a viability, T/C (second compound 3.16 µM, first compound 0.0316 µM) of 0.15% and a viability, T/C (second compound 3.16 µM, first compound 0.1 µM) of 0.11%. It also gave a viability, T/C (second compound 10 µM, first compound 0.000316 µM) of 0.04%, a viability, T/C (second compound 10 µM, first compound 0.001 µM) of 0.05% and a viability, T/C (second compound 10 µM, first compound 0.00316 µM) of 0.08%. It also gave a viability, T/C (second compound 10 µM, first compound 0.01 µM) of 0.06%, a viability, T/C (second compound 10 µM, first compound 0.0316 µM) of 0.07% and a viability, T/C (second compound 10 µM, first compound 0.1 µM) of 0.09%.
